Measured values reported in PMC13489962, “Small-molecule modulation of β-arrestins” (Nature, 2026).

Columns and labels:
βARR1 E134A = molecular target: T1, βARR1 E134A (Rattus norvegicus, UniProt P29066, E134A); assay: ITC binding to βARR1 mutant E134A; conditions: 25 °C
T1 construct: βARR1 or βARR2 construct, with their C terminus truncated (at amino acid 393 or 394, respectively); GST (pGEX4T1) (N, cleaved yes); made in house; host or cells: E. coli BL21 (DE3) pLysS
Procedure: (§1) The expression and purification of β-arrestins have been described previously[44],[62]–[64]. In brief, E. coli BL21 (DE3) pLysS cells (New England Biolabs: C2527I) carrying pGEX4T1-Rattus norvegicus βARR1 or βARR2 construct, with their C terminus truncated (at amino acid 393 or 394, respectively), were cultured in Terrific Broth (Teknova) medium at 37 °C. After OD600 reached 0.6–0.8, the cells were induced with 0.1 mM isopropyl-β-D-thiogalactopyranoside (IPTG) at 18 °C overnight. Bacteria were collected by centrifugation (4,000 rpm), and cell pellets were resuspended in lysis buffer (20 mM HEPES, pH 8, 150 mM NaCl, 10% glycerol, 1 mM EDTA, 0.2 mM dithiothreitol (DTT), 1 mM phenylmethylsulfonyl fluoride, and 1 mM benzamidine) at 4 °C for 1 h. […] Eluted fractions were analysed by SDS–PAGE, pooled, concentrated using 30 kDa MWCO Amicon Ultra-15 Centrifugal Filter devices, flash-frozen in liquid nitrogen, and stored in aliquots at −80 °C. […] Protein concentrations for each protein were determined by ultraviolet absorption at 280 nm and extinction coefficients estimated using the ExPASy ProtParam tool[67].
(§2) ITC measurements were performed on a MicroCal iTC200 system at 25 °C. […] Protein concentrations were determined by spectrophotometry at 280 nm, using extinction coefficients calculated from each protein sequence via the ProtParam program. […]

βARR1 C251A = molecular target: T2, βARR1 C251A (Rattus norvegicus, UniProt P29066, C251A); assay: ITC binding to βARR1 mutant C251A
T2 construct: βARR1 or βARR2 construct, with their C terminus truncated (at amino acid 393 or 394, respectively); GST (pGEX4T1) (N, cleaved yes); made in house; host or cells: E. coli BL21 (DE3) pLysS
T2 sequence (P29066 1-393 C251A): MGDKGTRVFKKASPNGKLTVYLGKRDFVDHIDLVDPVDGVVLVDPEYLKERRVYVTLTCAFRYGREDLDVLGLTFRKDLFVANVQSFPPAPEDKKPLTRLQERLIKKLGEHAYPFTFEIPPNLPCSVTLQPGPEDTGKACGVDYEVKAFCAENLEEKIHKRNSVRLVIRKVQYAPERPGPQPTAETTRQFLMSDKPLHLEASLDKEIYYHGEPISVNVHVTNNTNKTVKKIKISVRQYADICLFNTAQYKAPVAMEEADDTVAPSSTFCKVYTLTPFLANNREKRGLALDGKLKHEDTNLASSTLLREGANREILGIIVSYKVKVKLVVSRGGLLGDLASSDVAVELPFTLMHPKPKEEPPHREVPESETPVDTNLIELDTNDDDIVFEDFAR
Procedure: as §1, §2

βARR1 R285A = molecular target: T3, βARR1 R285A (Rattus norvegicus, UniProt P29066, R285A); assay: ITC binding to βARR1 mutant R285A
T3 construct: βARR1 or βARR2 construct, with their C terminus truncated (at amino acid 393 or 394, respectively); GST (pGEX4T1) (N, cleaved yes); made in house; host or cells: E. coli BL21 (DE3) pLysS
T3 sequence (P29066 1-393 R285A): as the sequence (P29066 1-393 C251A) above, with A251C, R285A counted along it
Procedure: as §1, §2

[1] = tested on: βARR2 recruitment to β2V2R; assay: PathHunter βARR2 recruitment to β2V2R in U2OS cells; format: cell-based; conditions: 50 μM (recruitment), 25 μM (internalization); n = 1–2; Reviewer Fig. R2
Procedure: β-Arrestin recruitment to the agonist-activated receptor (β2V2R) was measured using the DiscoveRx PathHunter β-arrestin assay, which uses enzyme fragment complementation. […] Upon agonist-induced recruitment of βARR2 to β2V2R, the β-gal fragments complement to form a functional enzyme, generating a measurable chemiluminescent signal. The signal intensity correlates directly with the extent of βARR2 recruitment. U2OS cells co-expressing β2V2R and βARR2 were plated at a density of 25,000 cells per well in white, clear-bottom 96-well plates 24 h before treatment. On the day of the experiment, cells were treated with either a single dose (50 μM) or varying concentrations of a specific β-arrestin modulator or vehicle control in Hanks’ balanced salt solution (HBSS) (Sigma-Aldrich) with 20 mM HEPES (pH 7.4) and 0.05% BSA. Cells were incubated at 37 °C, 5% CO2, and about 100% relative humidity for about 30 min, followed by stimulation with either 10 nM Iso or a serial dilution of Iso for 60 min at 37 °C. After agonist stimulation, PathHunter reagents were added, and cells were incubated for another 60 min at ambient temperature. Luminescence signals were measured using a CLARIOstar microplate reader (BMG Labtech).

βARR1 L129G = molecular target: T4, βARR1 L129G (Rattus norvegicus, UniProt P29066, L129G); assay: ITC binding to βARR1 mutant L129G; conditions: 25 °C
T4 construct: βARR1 or βARR2 construct, with their C terminus truncated (at amino acid 393 or 394, respectively); GST (pGEX4T1) (N, cleaved yes); made in house; host or cells: E. coli BL21 (DE3) pLysS
T4 sequence (P29066 1-393 L129G): as the sequence (P29066 1-393 C251A) above, with L129G, A251C counted along it
Procedure: as §1, §2

β-arrestin = assay: Functional assays (not specified); conditions: peer review reply

T1 sequence (P29066 1-393 E134A): as the sequence (P29066 1-393 C251A) above, with E134A, A251C counted along it

Structure (SMILES): C=C1C(=O)[C@]23[C@H](O)[C@H]1CC[C@H]2[C@@]12CO[C@]3(O)[C@@H](O)[C@@H]1C(C)(C)CC[C@@H]2O [Cmpd-5, (1S,4aR,5S,6S,6aR,9S,11aS,11bS,14R)-1,5,6,14-tetrahydroxy−4,4-dimethyl-8-methylenedecahydro-1H-6,11b-(epoxymethano)-6a,9-methanocyclohepta[a]naphthalen-7(8H)-one]
- Kd (βARR1 E134A): 2200 ± 500 nM
- ΔH, βARR1 E134A (βARR1 E134A): -1.2 kcal/mol
- Kd fold over WT, βARR1 C251A (βARR1 C251A): 8.3 fold
- Kd (βARR1 C251A; 25 °C): 3000 ± 1000 nM
- Kd fold over WT, βARR1 R285A (βARR1 R285A): 46.5 fold
- ΔH, βARR1 R285A (βARR1 R285A; 25 °C): -1.5 kcal/mol
- inhibition across a full Iso dose range, βarr2 recruitment and receptor internalization [1]: robust
- Kd (βARR1 L129G): 2000 ± 700 nM
- binding affinity from functional assays (β-arrestin): 2 to 10 µM
